# Measured values reported in patent US11028084B2, “Selective inhibitors of gentotoxic steress-induced IKK/NF-κB pathways” (Max-Delbrück-Centrum für Molekulare Medizin in der …, priority 2016, dated 2021).
# Key:
# [1] = target: T1, nuclear IKKγ-PIASy-PARP1-ATM signalosome (Mus musculus, UniProt O88522+P11103+Q62388+Q9JM05); experiment: Nuclear PARP1-signalosome formation, IKKγ co-immunoprecipitation, MEF cells; type: cell-based; details: irradiation
# T1 construct: endogenous in cells; host or cells: MEF (mouse embryonic fibroblasts)
# Description: FIG. 8: (A) HepG2 cells were pre-treated with DMSO or MW01 and irradiated. Nuclear cell extracts (NE) were used for PIASy immunoprecipitation (IP). Western blot membranes were incubated with indicated antibodies. (B) Experiment as shown in (A), but with IKKγ IP. (C) Experiment as shown in (B), but done in HEK293 cells. (D) Experiment done as shown in […], but repeated in MEF cells.
# Following cell lysis the protein concentration of samples was determined. For input controls, 40 μg lysate were mixed with 6×SDS-buffer and denatured by heating to 95° C. for 4 min. Approximately 1500 μg protein lysate was used for pulldown and samples volumes were equalled with lysis buffer. Lysates were precleared with 30 μl sepharose A or sepharose G beads (depending on the antibody type used for pulldown) for 30 min, and centrifuged for 5 min at 1,500×g. The supernatant was transferred to a new reaction tube. Primary antibody (2-2.5 μg) was added to the cleared lysate for immunoprecipitation overnight while rotating at 4° C. The next day 30 μl sepharose beads per sample were used for immobilisation of antibodies. Following 4 washes with IP wash buffer precipitated proteins were eluted by mixing with 3×SDS-buffer and heating to 95° C. for 4 min.
# [2] = test system: IKKγ phosphorylation at S85; experiment: IKKγ S85 phosphorylation after irradiation, WB, MEF cells; type: cell-based, mouse; details: MEF (murine)
# Description: (§1) FIG. 11: (A) HEK293 cells were pre-incubated with DMSO, MW01 or ATM inhibitor KU55933 and irradiated. Lysates were subjected to SDS-PAGE/WB. The specific IKKγ S85 band (lower band) was identified by induction following irradiation and by sensitivity to ATMi and λ-phosphatase (λ-PP) treatment. The asterisk indicates a non-specific band that was neither inducible nor ATMi sensitive. (B) Experiment was done as shown in (A) using MEF cells. (C) HEK293 cells were pre-treated with DMSO or MW01, irradiated and lysed. Lysates were used to immunoprecipitate IKKγ using an IKKγ antibody.
# HEK293 cells = experiment: Crystal violet staining (cell number), HEK293 cells; type: cell-based, human
# Description: FIG. 16: (A) U2OS cells were pre-treated with DMSO or MW01 and irradiated. Cells were lysed 8 h post γ-IR and were used for western blotting and immunochemical staining. (B) HEK293 cells were pre-treated with DMSO or MW01 and irradiated. After 48 h cells were fixed and stained with crystal violet. Dissolved crystal violet was used for absorbance measurement in a visible light spectrophotometer at a wavelength of 595 nm. (C) HEK293 cells were pre-treated with DMSO or MW01 and irradiated. The percentage of viable cells within the population was calculated by exclusion of annexin V and propidium-iodide positive cells measured by flow cytometry. (D) MEF cells were pre-treated with DMSO or MW01 and irradiated. Cells were used for annexin V staining 24 h and 48 after γ-IR. Percentage of annexin V positive cell population was analysed using a flow cytometer. (E) Experiment done as shown in (D) but with HT1080 cells processed 8 h after irradiation. Statistical significance was calculated using students t-test.
# For crystal violet staining, cells were washed with ice-cold PBS and fixed with 4% PFA in PBS for 15 min under a fume hood. After washing with PBS, cells were stained with 0.1% crystal violet for 20 min at RT. […] Then, 0.25 ml of stain was diluted 1:4 in ddH2O and absorbance was measured at 595 nm using a spectrophotometer against 10% acetic acid as blank.
# [3] = test system: TNFα-induced NF-κB activation; experiment: p65 S536 phosphorylation after TNFα stimulation, SDS-PAGE/WB, U2OS cells; type: cell-based, human; details: 10 μM and 20 μM
# Description: FIG. 4: (A) U2OS cells were pre-treated with increasing concentrations of MW01 in triplicates in a 384 well plate. Then, cells were treated with TNFα, fixed and subjected to IF staining of p65. Spatial measurement of p65 cytosolic and nuclear signals was used for the calculation of p65 translocation rates. (B) U2OS cells were pre-treated with MW01 at concentrations of 10 or 20 μM and stimulated with TNFα. Cell lysates were subjected to SDS-PAGE/WB. (C) HEK293 cells were pre-treated with DMSO or MW01 followed by administration of etoposide or TNFα. Cell lysates were used for EMSA.
# (§2) For the activation of the canonical NF-κB pathway cells were treated with recombinant human TNFα (10 ng/ml) or IL-1β (10 ng/ml) for 20-30 min at 37° C.
# [4] = test system: IL-1β-induced NF-κB activation; experiment: IL-1β-stimulated NF-κB activation, SDS-PAGE/WB and EMSA, U2OS cells; type: cell-based, human
# Description: FIG. 5: (A) U2OS cell were pre-treated with MW01 followed by stimulation with IL-1p. Cell lysates were used for SDS-PAGE/WB and EMSA. (B) Cells pre-treated with increasing concentrations MW01 were stimulated with IL-1p. Cell lysates were used for SDS-PAGE/WB and stained with indicated antibodies.
# as §2
# DNA repair mechanisms = experiment: γH2AX foci per nucleus, immunofluorescence, U2OS cells; type: cell-based, human; details: 5 μM, untreated (non-irradiated) cells, 5 hours
# Description: FIG. 17: U2OS cells grown on coverslips were incubated 30 min with DMSO or MW01 (5 μM). Then, cells were γ-irradiated (5 Gy) or mock irradiated (mock IR). After 5 hours, cells were fixed and subjected to immunofluorescence staining procedure. DNA damage-indicating γH2AX foci and nuclei n≥480 nuclei per condition) were counted for the calculation of average foci per nucleus. Significance was calculated using student's t-test.
# U2OS cells were grown on coverslips and incubated 30 min with DMSO or MW01 (5 μM). Then, cells were γ-irradiated (5 Gy) or mock irradiated (mock IR). After 5 hours, cells were fixed and subjected to immunofluorescence staining procedure. DNA damage-indicating γH2AX foci and nuclei (n≥480 nuclei per condition) were counted for the calculation of average foci per nucleus. Significance was calculated using student's t-test.
# [5] = test system: genotoxic stress-initiated NF-κB signaling cascade; experiment: Time course of IκBα, p65, IKK and TAK1 phosphorylation after γ-IR, WB, U2OS cells; type: cell-based, human
# Description: FIG. 6: (A) U2OS cells were pre-treated with DMSO or MW01 and irradiated. Stimulation of cell with IL-1β served as a positive control for IκBα and p65 phosphorylation. Cells were lysed at indicated time points and used for WB analyses. (B,C) Similar experimental setup as in (A). (D) Experiment as in (A-C), but with other time points analysed and performed with HepG2 cells. PARP1 and LDH serve as loading controls.
# [6] = test system: IKKγ phosphorylation at S85; experiment: IKKγ S85 phosphorylation after irradiation, WB, HEK293 cells; type: cell-based; details: HEK293 (human)
# Description: as §1
# T1 sequence (O88522 whole entry): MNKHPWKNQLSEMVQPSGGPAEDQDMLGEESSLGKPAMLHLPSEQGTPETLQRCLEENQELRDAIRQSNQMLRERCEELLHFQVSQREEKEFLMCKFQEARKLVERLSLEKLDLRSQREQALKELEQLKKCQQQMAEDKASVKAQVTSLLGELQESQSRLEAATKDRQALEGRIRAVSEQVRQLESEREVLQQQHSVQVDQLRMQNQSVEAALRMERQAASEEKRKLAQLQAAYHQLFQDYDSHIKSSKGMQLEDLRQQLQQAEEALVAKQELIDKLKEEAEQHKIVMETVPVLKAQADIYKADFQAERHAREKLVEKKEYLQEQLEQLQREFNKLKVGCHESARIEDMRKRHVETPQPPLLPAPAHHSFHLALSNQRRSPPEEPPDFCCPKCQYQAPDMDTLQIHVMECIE
# T1 sequence (Q9JM05 2-507 limits assumed): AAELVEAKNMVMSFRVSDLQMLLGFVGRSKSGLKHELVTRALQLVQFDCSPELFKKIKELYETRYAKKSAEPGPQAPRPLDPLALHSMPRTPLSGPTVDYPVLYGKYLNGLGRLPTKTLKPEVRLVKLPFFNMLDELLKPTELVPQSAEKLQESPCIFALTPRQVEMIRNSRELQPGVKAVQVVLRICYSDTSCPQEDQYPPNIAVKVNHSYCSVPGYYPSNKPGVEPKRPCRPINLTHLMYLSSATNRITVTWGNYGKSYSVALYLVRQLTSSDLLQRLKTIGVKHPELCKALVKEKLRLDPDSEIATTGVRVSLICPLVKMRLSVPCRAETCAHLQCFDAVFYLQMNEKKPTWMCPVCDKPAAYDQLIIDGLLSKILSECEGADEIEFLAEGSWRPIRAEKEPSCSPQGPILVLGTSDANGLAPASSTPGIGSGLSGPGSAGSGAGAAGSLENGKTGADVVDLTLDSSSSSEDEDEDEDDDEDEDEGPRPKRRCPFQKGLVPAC
# T1 sequence (P11103 2-1013 limits assumed): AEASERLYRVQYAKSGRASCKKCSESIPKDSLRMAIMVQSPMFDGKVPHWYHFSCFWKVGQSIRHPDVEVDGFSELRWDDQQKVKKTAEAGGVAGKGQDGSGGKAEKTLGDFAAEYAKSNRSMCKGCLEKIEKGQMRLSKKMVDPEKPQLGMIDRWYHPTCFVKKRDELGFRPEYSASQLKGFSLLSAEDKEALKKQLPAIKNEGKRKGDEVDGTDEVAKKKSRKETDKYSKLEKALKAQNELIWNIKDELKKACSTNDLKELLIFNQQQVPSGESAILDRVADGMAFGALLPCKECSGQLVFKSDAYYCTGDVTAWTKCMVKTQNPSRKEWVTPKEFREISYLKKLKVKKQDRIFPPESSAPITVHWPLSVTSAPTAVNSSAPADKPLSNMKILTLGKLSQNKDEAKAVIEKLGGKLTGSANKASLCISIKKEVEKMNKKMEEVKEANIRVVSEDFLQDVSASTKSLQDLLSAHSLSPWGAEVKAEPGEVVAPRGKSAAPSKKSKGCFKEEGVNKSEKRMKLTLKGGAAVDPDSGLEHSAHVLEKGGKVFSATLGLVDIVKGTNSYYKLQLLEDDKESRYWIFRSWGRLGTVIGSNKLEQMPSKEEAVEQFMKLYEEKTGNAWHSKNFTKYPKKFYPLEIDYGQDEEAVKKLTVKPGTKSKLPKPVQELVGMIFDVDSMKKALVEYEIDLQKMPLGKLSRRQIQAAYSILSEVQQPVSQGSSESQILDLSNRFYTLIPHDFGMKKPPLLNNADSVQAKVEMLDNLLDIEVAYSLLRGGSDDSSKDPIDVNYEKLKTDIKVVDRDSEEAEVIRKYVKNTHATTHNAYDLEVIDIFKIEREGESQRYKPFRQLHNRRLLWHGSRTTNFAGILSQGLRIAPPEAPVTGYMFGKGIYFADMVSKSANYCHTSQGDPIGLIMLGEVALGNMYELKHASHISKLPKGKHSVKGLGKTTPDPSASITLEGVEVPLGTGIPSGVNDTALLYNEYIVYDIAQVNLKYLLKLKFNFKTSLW
# T1 sequence (Q62388 2-3066 limits assumed): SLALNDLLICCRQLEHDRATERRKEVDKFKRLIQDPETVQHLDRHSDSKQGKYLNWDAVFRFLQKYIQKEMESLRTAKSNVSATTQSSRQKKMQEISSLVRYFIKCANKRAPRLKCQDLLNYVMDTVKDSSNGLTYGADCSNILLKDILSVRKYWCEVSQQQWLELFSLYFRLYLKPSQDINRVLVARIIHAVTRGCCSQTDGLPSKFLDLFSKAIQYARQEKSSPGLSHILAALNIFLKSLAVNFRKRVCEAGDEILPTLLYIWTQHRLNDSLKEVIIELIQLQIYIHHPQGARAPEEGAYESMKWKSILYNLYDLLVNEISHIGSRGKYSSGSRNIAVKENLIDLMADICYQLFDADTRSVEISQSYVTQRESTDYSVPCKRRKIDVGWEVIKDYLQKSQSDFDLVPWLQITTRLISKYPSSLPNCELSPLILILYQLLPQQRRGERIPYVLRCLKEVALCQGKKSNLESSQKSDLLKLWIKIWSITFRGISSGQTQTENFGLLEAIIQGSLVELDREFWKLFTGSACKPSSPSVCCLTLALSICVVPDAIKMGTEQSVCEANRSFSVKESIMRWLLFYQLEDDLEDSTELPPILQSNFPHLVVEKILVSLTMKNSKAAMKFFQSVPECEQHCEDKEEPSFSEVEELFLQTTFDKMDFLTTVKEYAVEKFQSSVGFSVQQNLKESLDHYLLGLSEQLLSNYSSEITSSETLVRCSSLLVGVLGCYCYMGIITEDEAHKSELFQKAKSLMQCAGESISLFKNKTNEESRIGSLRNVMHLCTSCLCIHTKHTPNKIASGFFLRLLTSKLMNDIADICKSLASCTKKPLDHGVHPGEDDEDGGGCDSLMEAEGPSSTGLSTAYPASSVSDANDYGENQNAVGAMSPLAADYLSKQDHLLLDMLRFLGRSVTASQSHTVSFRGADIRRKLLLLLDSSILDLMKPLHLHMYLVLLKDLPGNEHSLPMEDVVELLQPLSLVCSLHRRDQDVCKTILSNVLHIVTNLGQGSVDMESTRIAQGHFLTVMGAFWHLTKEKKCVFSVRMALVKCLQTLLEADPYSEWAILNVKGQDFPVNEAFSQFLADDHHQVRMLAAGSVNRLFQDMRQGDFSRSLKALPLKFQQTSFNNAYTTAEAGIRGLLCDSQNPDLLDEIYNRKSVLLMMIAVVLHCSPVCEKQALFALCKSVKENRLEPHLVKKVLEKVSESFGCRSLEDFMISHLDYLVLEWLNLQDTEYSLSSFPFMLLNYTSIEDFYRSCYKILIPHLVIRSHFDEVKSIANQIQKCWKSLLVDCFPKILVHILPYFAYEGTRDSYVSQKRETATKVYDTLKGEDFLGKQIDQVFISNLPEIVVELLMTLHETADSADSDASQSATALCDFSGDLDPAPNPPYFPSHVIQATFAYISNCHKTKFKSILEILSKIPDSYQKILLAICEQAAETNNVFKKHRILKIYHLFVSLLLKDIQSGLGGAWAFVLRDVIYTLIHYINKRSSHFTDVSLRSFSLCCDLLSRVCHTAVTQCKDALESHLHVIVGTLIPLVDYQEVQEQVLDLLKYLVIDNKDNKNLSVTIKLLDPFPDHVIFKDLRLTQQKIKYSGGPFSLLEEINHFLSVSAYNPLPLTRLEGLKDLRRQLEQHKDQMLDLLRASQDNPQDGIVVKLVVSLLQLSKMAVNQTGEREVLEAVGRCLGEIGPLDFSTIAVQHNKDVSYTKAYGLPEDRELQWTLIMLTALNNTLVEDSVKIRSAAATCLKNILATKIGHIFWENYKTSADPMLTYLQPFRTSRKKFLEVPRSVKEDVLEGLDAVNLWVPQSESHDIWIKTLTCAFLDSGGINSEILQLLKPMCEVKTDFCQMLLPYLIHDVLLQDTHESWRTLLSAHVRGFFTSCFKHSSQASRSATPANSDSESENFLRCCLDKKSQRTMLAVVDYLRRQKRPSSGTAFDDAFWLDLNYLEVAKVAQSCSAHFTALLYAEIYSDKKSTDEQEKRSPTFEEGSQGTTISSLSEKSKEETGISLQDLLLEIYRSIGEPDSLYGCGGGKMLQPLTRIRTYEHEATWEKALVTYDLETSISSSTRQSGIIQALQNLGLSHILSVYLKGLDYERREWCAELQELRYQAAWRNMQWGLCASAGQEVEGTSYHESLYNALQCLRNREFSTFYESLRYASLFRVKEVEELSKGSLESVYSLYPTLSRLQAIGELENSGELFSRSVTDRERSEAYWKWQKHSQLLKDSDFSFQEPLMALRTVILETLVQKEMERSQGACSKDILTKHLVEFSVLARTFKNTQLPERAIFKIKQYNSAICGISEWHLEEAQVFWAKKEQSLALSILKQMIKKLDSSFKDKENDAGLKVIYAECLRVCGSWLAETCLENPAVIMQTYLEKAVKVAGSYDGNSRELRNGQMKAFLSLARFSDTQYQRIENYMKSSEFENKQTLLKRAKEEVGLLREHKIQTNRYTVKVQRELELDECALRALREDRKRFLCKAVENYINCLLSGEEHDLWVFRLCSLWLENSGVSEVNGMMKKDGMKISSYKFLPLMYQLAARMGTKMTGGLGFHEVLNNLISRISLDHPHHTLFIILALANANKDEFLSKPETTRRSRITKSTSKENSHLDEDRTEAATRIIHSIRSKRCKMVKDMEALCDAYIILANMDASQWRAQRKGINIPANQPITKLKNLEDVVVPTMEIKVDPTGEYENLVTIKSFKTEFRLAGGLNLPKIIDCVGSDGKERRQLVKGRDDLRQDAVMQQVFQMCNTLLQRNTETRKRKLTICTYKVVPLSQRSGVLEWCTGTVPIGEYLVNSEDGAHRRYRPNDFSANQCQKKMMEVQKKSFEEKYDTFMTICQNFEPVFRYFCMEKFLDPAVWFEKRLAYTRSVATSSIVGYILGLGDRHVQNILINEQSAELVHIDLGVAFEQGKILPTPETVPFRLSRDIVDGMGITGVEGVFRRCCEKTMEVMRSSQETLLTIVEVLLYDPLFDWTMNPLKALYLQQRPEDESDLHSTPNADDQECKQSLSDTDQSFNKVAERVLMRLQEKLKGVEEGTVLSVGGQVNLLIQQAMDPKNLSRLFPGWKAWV
smiles,measurement,setting,value
"COc1ccc2c(c1OC)c(=O)n1c3ccc(O)cc3c3ccnc2c31 [MW01, 12-hydroxy-6,7-dimethoxy-8H-benzo[c]indolo[3,2,1-ij][1,5]naphthyridin-8-one]","interaction of IKKγ with PARP1, p-ATM S1981 or PIASy",[1],abrogation of the interaction
same,phosphorylation of IKKγ at S85,[2],abolished
same,cell number compared to the DMSO/IR control,"HEK293 cells; HEK293, 48 h after irradiation",significant effect on further reduction in cell number
same,cell number in comparison to DMSO treated samples,"HEK293 cells; HEK293, not irradiated",reduced the cell number
same,p65 S536 phosphorylation after TNFα,[3],no effect
same,p65 S536 phosphorylation following IL-1β stimulation,[4]; U2OS,neither inhibited p65 S536 phosphorylation
same,IKK activation and p65 S536 phosphorylation after IL-1β at high concentrations,[4]; up to 100 μM,no effect on the phosphorylation state of IKK or p65
same,γH2AX foci per cell,DNA repair mechanisms,significant increase
same,TAK1 phosphorylation,[5]; 45 and 60 min following irradiation,strongly inhibited
same,IκBα phosphorylation,[5]; 45 min and 60 min after γ-IR,complete inhibition
same,p65 S536 phosphorylation,[5]; 45 min and 60 min after γ-IR,inhibited
same,IKK phosphorylation,[5]; 90 min after irradiation,abolished
same,phosphorylation of IKKγ at S85,[6],abolished
